According to US10517842B2, “Methods of modulating miRNA levels and compositions for use in the same” (Los Angeles Biomedical Research Institute at Harbor-UCLA …, priority 2017, dated 2019):

What was measured:
Type in all cases: cell-based, human
3′UTR fragment of IL8 = experiment: 3′UTR luciferase reporter assay in LSMC; settings: Tranilast 200 μM vs DMSO
Description: FIG. 10A: The relative luciferase activity in LSMC treated with Tranilast (200 μM) or DMSO as control for 48 hrs prior to transfection with Renilla and Firefly luciferase reporter plasmids carrying a 3′UTR fragment of COL3A1, CDK2 or IL8 and incubated with Tranilast (200 μM) or DMSO containing medium after transfection for another 48 hrs. The relative luciferase activity is presented as the ratio of Firefly:Renilla as compared to DMSO which was independently set as 1. The results are presented as mean±SEM of at least three sets of independent experiments using LSMC isolated from 3 patients. FIG. 10B: Protein expression of COL3A1 and CDK2 was determined after transfection of anti-miR scrambled oligonucleotides (aNC) or anti-miR-29c oligonucleotides (a29c) in LSMC for 72 hrs with DMSO or Tranilast (200 μM) treatment for the last 48 hrs. GAPDH was used as loading control. The result is one representative of at least three sets of independent experiments using LSMC isolated from 3 patients. FIG. 10C: The bar graph presented the relative band densities as mean±SEM of at least three independent experiments. Inhibition of protein expression by Tranilast treatment was calculated relative to changes in corresponding DMSO controls in cells transfected with aNC or anti-miR-29c.

[1] = test system: leiomyoma smooth muscle cells (LSMC); experiment: Cell proliferation assay (MTT); settings: Tranilast 100 to 400 μM, 48 hrs, dose-dependent, p<0.05
Text: Leiomyomas and matched myometrium (N=12) were collected from patients scheduled to undergo hysterectomy at Harbor-UCLA Medical Center with prior approval from Institutional Review Board (#036247). The tissues were either snap frozen and stored in liquid nitrogen for further analysis, or used for isolation of LSMC as previously described (Chuang et al., “miR-200c is aberrantly expressed in leiomyomas in an ethnic-dependent manner and targets ZEBs, VEGFA, TIMP2, and FBLN5,” Endocrine-related cancer (2012)19:541-56; Chuang et al., “miR-93/106b and their host gene, MCM7, are differentially expressed in leiomyomas and functionally target F3 and IL-8. Molecular endocrinology,” (2012) 26:1028-42). Briefly, LSMC were cultured in DMEM supplemented with 10% fetal bovine serum until reaching confluence with a change of media every 2-3 days. […]
LSMC were seeded at 1000 cells/well in 96-well plates and cultured for 48 hrs. […] The rate of cell proliferation was determined using the MTT assay and cells were photographed as previously described (Chuang & Khorram, “Mechanisms underlying aberrant expression of miR-29c in uterine leiomyoma,” Fertility and sterility (2016)105:236-45.e1; Chuang et al., “The Regulatory Function of miR-200c on Inflammatory and Cell-Cycle Associated Genes in SK-LMS-1, A Leiomyosarcoma Cell Line,” Reproductive sciences (2015) 22:563-71). […]

NF-kB = NF-kB luciferase reporter assay in LSMC; settings: Tranilast 200 μM, 48 hrs, vs DMSO set as 1
Description: The ratio of Firefly:Renilla was determined after treatment of Tranilast (200 μM) for 48 hrs and reported as relative luciferase activity as compared to DMSO which was independently set as 1. FIG. 13B: Graphical depiction of the NF-Kb (p65) binding elements in the miR-200c promoter. […] The results are presented as mean±SEM of at least three independent experiments using LSMC isolated from 3 patients.

[2] = test system: NF-Kb (p65) binding elements in the miR-200c promoter; experiment: CHIP assay, p65 binding in the miR-200c promoter in LSMC; settings: Tranilast 200 μM, 48 hrs, percent input method
COL3A1 = experiment: Immunoblotting, protein expression in LSMC; settings: Tranilast 200 μM, 48 h, Western blot, P<0.05
Description: (§1) Total protein isolated from LSMC treated with Tranilast (200 μM) at sub-confluence for 48 hrs and from tissues was subjected to immunoblotting as previously described (Chuang et al., “miR-29c induction contributes to downregulation of vascular extracellular matrix proteins by glucocorticoids,” American journal of physiology Cell physiology (2015) 309:C117-25). Specific antibodies generated against CCND1, COL3A1, TGF-β3 (Proteintech Group, Inc., Chicago, Ill.), CDK2, DNMT1 (Santa Cruz Biotechnology, Dallas, Tex.), COL1 (Fitzgerald Industries Intl., Acton, Mass.) and EZH2 (Cell Signaling Technology, Danvers, Mass.) were used to detect specific protein expression. The membranes were also stripped and probed with GAPDH antibody (Proteintech Group, Inc.) serving as loading control.

EZH2 = experiment: Immunoblotting, protein expression in LSMC; settings: Tranilast 200 μM, 48 h, Western blot, P<0.05
Description: as §1

TGF-β3 = experiment: Immunoblotting, protein expression in LSMC; settings: Tranilast 200 μM, 48 h, Western blot, P<0.05
Description: as §1

COL1 = experiment: Immunoblotting, protein expression in LSMC; settings: Tranilast 200 μM, 48 h, Western blot, P<0.05
Description: as §1

CDK2 = experiment: Immunoblotting, protein expression in LSMC; settings: Tranilast 200 μM, 48 h, Western blot, P<0.05
Description: as §1

DNMT1 = experiment: Immunoblotting, protein expression in LSMC; settings: Tranilast 200 μM, 48 h, Western blot, P<0.05
Description: as §1

CCND1 = experiment: Immunoblotting, protein expression in LSMC; settings: Tranilast 200 μM, 48 h, Western blot, P<0.05
Description: as §1

caspase 3/7 = experiment: Caspase-3/7 activity assay (Apo-One) in LSMC; settings: Tranilast 200 μM, 48 hrs
Description: LSMC were cultured in 96-well plates as mentioned above and at sub-confluence were treated with 200 μM Tranilast for 48 hrs. The caspase 3/7 activity was determined using the Apo-One homogeneous caspase-3/7 assay (Promega, Madison, Wis.) after the indicated time periods according to the manufacturer's protocol. The Apo-One caspase-3/7 reagent was added in a 1:1 ratio with the medium, and the rate of caspase-3/7 activity was determined by measuring the fluorescence using a multi-plate reader (Molecular Devices, Inc., Sunnyvale, Calif.) at an excitation of 485 nm and an emission of 527 nm.

In the case of `COc1ccc(C=CC(=O)Nc2ccccc2C(=O)O)cc1OC` [Tranilast, 2-[[3-(3,4-dimethoxyphenyl)-1-oxo-2-propenyl]amino]benzoic acid], the “expression of IL8 (heading to FIG. 10A, 3′UTR reporter)” value (3′UTR fragment of IL8) is reported as “Down-regulated”, the “rate of LSMC cell proliferation” value [1] is reported as “significantly inhibited” and the “NF-kB signaling (NF-kB luciferase reporter activity)” value (NF-kB) is reported as “Blockade”. For the same compound, the “p65 binding ability in miR-200c promoter” value [2] was “decreased”, the “COL3A1 expression, protein level” value (COL3A1) was “significantly inhibited” and the “EZH2 expression, protein level” value (EZH2) was “significantly inhibited”. The “TGF-β3 expression, protein level” value (TGF-β3) was “significantly inhibited”, the “COL1 expression, protein level” value (COL1) was “significantly inhibited” and the “CDK2 expression, protein level” value (CDK2) was “significantly inhibited”. For the same compound, the “DNMT1 expression, protein level” value (DNMT1) was “significantly inhibited”, the “CCND1 expression, protein level” value (CCND1) was “significantly inhibited” and the “Caspase 3/7 activity” value (caspase 3/7) was “without a significant effect”.
